Measurements: PubChem BioAssay (NCI)
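Compound exposure: 48 hours, 5 concentrations, 96-well plates. Abbreviation: GI50, concentration required for 50% inhibition of growth. At the TGI there is no net growth.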

Key:
Assay in all cases: NCI-60 cell line screen, 48 h
NCI-H23 lung = test system: NCI-H23 lung
HOP-62 NSCLC = test system: HOP-62 NSCLC
OVCAR-5 ovarian = test system: OVCAR-5 ovarian
NCI/ADR-RES ovarian = test system: NCI/ADR-RES ovarian
PC-3 prostate = test system: PC-3 prostate
TK-10 renal = test system: TK-10 renal
LOX IMVI melanoma = test system: LOX IMVI melanoma
U251 CNS = test system: U251 CNS
SN12C renal = test system: SN12C renal
HCC-2998 colon = test system: HCC-2998 colon
OVCAR-8 ovarian = test system: OVCAR-8 ovarian
SF-539 CNS = test system: SF-539 CNS
SF-268 CNS = test system: SF-268 CNS
UACC-62 melanoma = test system: UACC-62 melanoma
OVCAR-3 ovarian = test system: OVCAR-3 ovarian
KM12 colon = test system: KM12 colon
MALME-3M melanoma = test system: MALME-3M melanoma
NCI-H460 lung = test system: NCI-H460 lung
SR leukemia = test system: SR leukemia
RPMI-8226 leukemia = test system: RPMI-8226 leukemia
HCT-116 colon = test system: HCT-116 colon
SK-OV-3 ovarian = test system: SK-OV-3 ovarian
NCI-H522 lung = test system: NCI-H522 lung
SF-295 CNS = test system: SF-295 CNS
SNB-75 CNS = test system: SNB-75 CNS
SK-MEL-28 melanoma = test system: SK-MEL-28 melanoma
MCF7 breast = test system: MCF7 breast
COLO 205 colon = test system: COLO 205 colon
OVCAR-4 ovarian = test system: OVCAR-4 ovarian
K-562 leukemia = test system: K-562 leukemia
MDA-MB-231 breast = test system: MDA-MB-231 breast
SW-620 colon = test system: SW-620 colon
BT-549 breast = test system: BT-549 breast
MDA-MB-435 = test system: MDA-MB-435
HS 578T breast = test system: HS 578T breast
HOP-92 NSCLC = test system: HOP-92 NSCLC
UACC-257 melanoma = test system: UACC-257 melanoma
SNB-19 CNS = test system: SNB-19 CNS
DU-145 prostate = test system: DU-145 prostate
SK-MEL-5 melanoma = test system: SK-MEL-5 melanoma
MOLT-4 leukemia = test system: MOLT-4 leukemia
IGROV1 ovarian = test system: IGROV1 ovarian
A549 NSCLC = test system: A549 NSCLC
ACHN renal = test system: ACHN renal
A498 renal = test system: A498 renal
HL-60(TB) leukemia = test system: HL-60(TB) leukemia
SK-MEL-2 melanoma = test system: SK-MEL-2 melanoma
HCT-15 colon = test system: HCT-15 colon
M14 melanoma = test system: M14 melanoma
T-47D breast = test system: T-47D breast
UO-31 renal = test system: UO-31 renal
CAKI-1 renal = test system: CAKI-1 renal
HT29 colon = test system: HT29 colon
CCRF-CEM leukemia = test system: CCRF-CEM leukemia
786-0 renal = test system: 786-0 renal
RXF 393 renal = test system: RXF 393 renal
NCI-H226 lung = test system: NCI-H226 lung

Cn1cc(C2=C(c3cccc4ccccc34)C(=O)NC2=O)c2ccccc21
GI50 (NCI-H23 lung): 8.92 µM | TGI (NCI-H23 lung): > 25 µM | GI50 (HOP-62 NSCLC): 18.5 µM | TGI (HOP-62 NSCLC): > 25 µM | GI50 (OVCAR-5 ovarian): 12.8 µM | TGI (OVCAR-5 ovarian): > 25 µM | GI50 (NCI/ADR-RES ovarian): 9.59 µM | TGI (NCI/ADR-RES ovarian): > 25 µM | GI50 (PC-3 prostate): 7.51 µM | TGI (PC-3 prostate): > 25 µM | GI50 (TK-10 renal): 9.14 µM | TGI (TK-10 renal): > 23.9 µM | GI50 (LOX IMVI melanoma): 6.96 µM | TGI (LOX IMVI melanoma): > 25 µM | GI50 (U251 CNS): 7.44 µM | TGI (U251 CNS): > 25 µM | GI50 (SN12C renal): 6.58 µM | TGI (SN12C renal): > 17.5 µM | GI50 (HCC-2998 colon): 12.2 µM | TGI (HCC-2998 colon): > 25 µM | GI50 (OVCAR-8 ovarian): 7.17 µM | TGI (OVCAR-8 ovarian): 19 µM | GI50 (SF-539 CNS): 5.99 µM | TGI (SF-539 CNS): 14.2 µM | GI50 (SF-268 CNS): 9.17 µM | TGI (SF-268 CNS): > 25 µM | GI50 (UACC-62 melanoma): 8.33 µM | TGI (UACC-62 melanoma): > 25 µM | GI50 (OVCAR-3 ovarian): 6.06 µM | TGI (OVCAR-3 ovarian): 14.4 µM | GI50 (KM12 colon): 7.3 µM | TGI (KM12 colon): > 22.6 µM | GI50 (MALME-3M melanoma): 9.45 µM | TGI (MALME-3M melanoma): 24.2 µM | GI50 (NCI-H460 lung): 8.2 µM | TGI (NCI-H460 lung): > 25 µM | GI50 (SR leukemia): 7 µM | TGI (SR leukemia): > 20.9 µM | GI50 (RPMI-8226 leukemia): 8.18 µM | TGI (RPMI-8226 leukemia): > 19.9 µM | GI50 (HCT-116 colon): 5.92 µM | TGI (HCT-116 colon): > 16.7 µM | GI50 (SK-OV-3 ovarian): 8.35 µM | TGI (SK-OV-3 ovarian): > 25 µM | GI50 (NCI-H522 lung): 6.53 µM | TGI (NCI-H522 lung): 19.1 µM | GI50 (SF-295 CNS): 8.26 µM | TGI (SF-295 CNS): > 23.1 µM | GI50 (SNB-75 CNS): 3.73 µM | TGI (SNB-75 CNS): > 25 µM | GI50 (SK-MEL-28 melanoma): 8.91 µM | TGI (SK-MEL-28 melanoma): > 25 µM | GI50 (MCF7 breast): 5.7 µM | TGI (MCF7 breast): > 25 µM | GI50 (COLO 205 colon): 7.23 µM | TGI (COLO 205 colon): > 22.9 µM | GI50 (OVCAR-4 ovarian): 7.21 µM | TGI (OVCAR-4 ovarian): > 23.8 µM | GI50 (K-562 leukemia): 10.3 µM | TGI (K-562 leukemia): > 25 µM | GI50 (MDA-MB-231 breast): 8.74 µM | TGI (MDA-MB-231 breast): > 25 µM | GI50 (SW-620 colon): 9.45 µM | TGI (SW-620 colon): > 25 µM | GI50 (BT-549 breast): 7.49 µM | TGI (BT-549 breast): 19.7 µM | GI50 (MDA-MB-435): 6.06 µM | TGI (MDA-MB-435): > 25 µM | GI50 (HS 578T breast): 6.69 µM | TGI (HS 578T breast): > 24 µM | GI50 (HOP-92 NSCLC): 8.46 µM | TGI (HOP-92 NSCLC): 24.3 µM | GI50 (UACC-257 melanoma): 12.1 µM | TGI (UACC-257 melanoma): > 25 µM | GI50 (SNB-19 CNS): 14 µM | TGI (SNB-19 CNS): > 25 µM | GI50 (DU-145 prostate): 12.3 µM | TGI (DU-145 prostate): > 25 µM | GI50 (SK-MEL-5 melanoma): 5.1 µM | TGI (SK-MEL-5 melanoma): 11.9 µM | GI50 (MOLT-4 leukemia): 7.9 µM | TGI (MOLT-4 leukemia): > 22.5 µM | GI50 (IGROV1 ovarian): 11.2 µM | TGI (IGROV1 ovarian): > 24.1 µM | GI50 (A549 NSCLC): 7.63 µM | TGI (A549 NSCLC): > 25 µM | GI50 (ACHN renal): 7.48 µM | TGI (ACHN renal): > 25 µM | GI50 (A498 renal): 6.76 µM | TGI (A498 renal): 22.5 µM | GI50 (HL-60(TB) leukemia): 10.4 µM | TGI (HL-60(TB) leukemia): > 25 µM | GI50 (SK-MEL-2 melanoma): 7.33 µM | TGI (SK-MEL-2 melanoma): 18.6 µM | GI50 (HCT-15 colon): 6.66 µM | TGI (HCT-15 colon): > 25 µM | GI50 (M14 melanoma): 11.5 µM | TGI (M14 melanoma): > 25 µM | GI50 (T-47D breast): 6.32 µM | TGI (T-47D breast): 24.5 µM | GI50 (UO-31 renal): 7.38 µM | TGI (UO-31 renal): > 25 µM | GI50 (CAKI-1 renal): 5.31 µM | TGI (CAKI-1 renal): > 22.9 µM | GI50 (HT29 colon): 7.45 µM | TGI (HT29 colon): > 25 µM | GI50 (CCRF-CEM leukemia): 8.3 µM | TGI (CCRF-CEM leukemia): 24.5 µM | GI50 (786-0 renal): 7.99 µM | TGI (786-0 renal): > 25 µM | GI50 (RXF 393 renal): 4.41 µM | TGI (RXF 393 renal): 9.93 µM | GI50 (NCI-H226 lung): 7.7 µM | TGI (NCI-H226 lung): > 25 µM
